Source: ChEMBL document CHEMBL4619785, “Advantages of the Parent Nucleoside GS-441524 over Remdesivir for Covid-19 Treatment” (ACS Med Chem Lett, 2020)

Legend:
[1] = Cytotoxic activity in HAE cells; type: cell-based; conditions: human
[2] = system: Middle East respiratory syndrome-related coronavirus; assay: Antiviral activity against Middle East respiratory syndrome coronavirus infected in primary HAE cells; type: functional, organism-based
Feline coronavirus = assay: Antiviral activity against Feline corona virus infected in CRFK cells; type: functional, organism-based; conditions: Alphacoronavirus 1, CRFK
SARS-CoV = assay: Antiviral activity against SARS coronavirus infected in primary HAE cells; type: functional, organism-based; conditions: Severe acute respiratory syndrome-related coronavirus
in vivo [3] = conditions: mouse
in vivo [4] = conditions: rhesus monkey, serum, iv

SMILES	CC50 [1]	EC50 [2]	EC50 (Feline coronavirus)	EC50 (SARS-CoV)	half-life (in vivo [3])	half-life (in vivo [4])
N#C[C@@]1(c2ccc3c(N)ncnn23)O[C@H](COP(=O)(O)OP(=O)(O)OP(=O)(O)O)[C@@H](O)[C@H]1O [RDV-TP]	> 100000 nM	860 nM	780 nM	180 nM	–	–
CCC(CC)COC(=O)[C@H](C)N[P@](=O)(OC[C@H]1O[C@@](C#N)(c2ccc3c(N)ncnn23)[C@H](O)[C@@H]1O)Oc1ccccc1 [REMDESIVIR]	> 10000 nM	74 nM	–	69 nM	25 min	24 min
